Measured values from publication PMC5365645, “Preclinical Pharmacokinetics and Pharmacodynamic Target of SCY-078, a First-in-Class Orally Active Antifungal Glucan Synthesis Inhibitor, in Murine Models of Disseminated Candidiasis” (Antimicrobial Agents and Chemotherapy, 2017).

Key:
pKa values = format: physicochemical
[1] = Plasma protein binding by equilibrium dialysis, across species; format: in vitro ADME, and human; conditions: DBA (mouse), Sprague-Dawley (rat), beagle (dog), human, pH 7.4, range across species, 0.1 to 10 μM
Description: In vitro reversible protein binding and blood/plasma partition ratio were determined for SCY-078 in mouse, rat, dog, and human plasma and whole blood (Table 3). […] The unbound fraction of SCY-078 in plasma determined by means of equilibrium dialysis was 0.2 to 0.5% (99.8 to 99.5% bound) and appeared to be independent of concentration over the range studied (0.1 to 10 μM). Within the limitations of the assay method, binding perhaps appeared modestly higher in rodent plasma than in dog or human plasma; however, the study was not powered to identify differences between species.
Protein binding of [^3H]SCY-078 in mouse, rat, dog, and human plasma was determined by means of equilibrium dialysis and liquid scintillation counting. Tritium-labeled SCY-078 in ethanol was added to unlabeled SCY-078 in methanol to prepare stock solutions at 10, 100, and 1,000 μM SCY-078 with constant activity.
Protein binding was determined against isotonic phosphate-buffered saline (pH 7.4) at 37°C for 24 h. […] After incubation, aliquots (100 μl) of plasma and phosphate buffer were counted for radioactivity (Beckman LS6500 liquid scintillation counter), and unbound fractions of SCY-078 were estimated based on the following calculation: unbound fraction = radioactivity (dpm/0.1 ml) in buffer/total radioactivity (dpm/0.1 ml) in plasma.

in vitro = in vitro ADME; conditions: human, Caco-2
Description: Caco-2 cell monolayers were used to assess the in vitro absorptive permeability of SCY-078 as a predictor of absorption across the gut following oral delivery. The mean apparent permeability for 5 μM SCY-078 in the apical-to-basolateral direction was 8.9 ± 0.78 ×10^−6 cm/s (89 ± 7.8 nm/s), indicating good oral absorption since in this assay permeability values of >10^−6 cm/s are considered predictive of good absorption after oral administration ([9]).
Caco2 cells (ATCC CRL-2102) were cultured in Dulbecco modified Eagle medium with the dipeptide form of L-glutamine (GlutaMAX), 10% (vol/vol) fetal bovine serum, and 1% (vol/vol) penicillin-streptomycin at 10,000 U/ml in a 75-ml flask at 37°C in a humidified atmosphere of 5% CO2. […] On the day of the assay, the cell monolayers were rinsed with transport medium (Hanks balanced salt solution with 25 mM glucose and 25 mM HEPES [MediaTech Corning, Tewksbury, MA]), and the absorptive permeation of SCY-078 was evaluated by measuring the flux from the apical to the basolateral compartments. […] The apparent permeability coefficient (Papp; cm/s) was calculated as follows: Papp = 1/A·C0 (dQ/dt), where dQ/dt is the rate of drug appearance in the basolateral compartment (μmol/s), C0 is the initial drug concentration in the donor compartment (μM), and A is the surface area of the monolayer (cm^2). […]

[2] = test system: C. glabrata isolate CG 5592; parameters: method as in PMID 25512406; conditions: stasis ref 6; cited from earlier work
logD = format: physicochemical
in vivo [3] = experiment: in vivo; parameters: species or system mice, rats, and dogs
Description: The pharmacokinetics and bioavailability of SCY-078 were evaluated in uninfected mouse, rat, and dog after p.o. and i.v. administration. The in vivo phases of the PK studies were performed at either […] (Waltham, MA) or MPI Research (Mattawan, MI) after an Institutional Animal Care and Use Committee (IACUC) review. […] and MPI Research are Association for Assessment and Accreditation of Laboratory Animal Care International (AAALAC)-approved facilities. […] The peak concentration (Cmax), the time to maximum concentration (Tmax), the half-life, and the AUC were determined from composite mean plasma concentration-time data for rodents and individual plasma concentration-time data for dogs. All doses and plasma concentrations of SCY-078 are presented as free base. […] Male and female Wistar Han rats (n = 3/sex/group/time point) weighing 0.329 to 0.398 kg (males) or 0.187 to 0.244 kg (females) received a single 5-mg/kg dose of SCY-078 as an i.v. injection in the lateral tail administered over 5 min or an oral dose of 20 mg/kg as described above. Blood specimens were collected from four animals/time point/group using a sparse sampling strategy via the sublingual vein at time intervals to 72 h postdosing and processed as described above. Treatment naive male and female beagle dogs (n = 3/sex/group/time point) weighing 8 to 12 kg (males) or 6 to 10 kg (females) were given a single 5-mg/kg dose of SCY-078 as an i.v. injection over 5 min or an oral dose of 20 mg/kg as described above. Blood specimens were collected from the jugular vein at various time intervals to 72 h postdosing and processed as described above.

in vivo [4] = conditions: female, CD-1, mouse; for AUC(0-inf) / AUC(0-t) / half-life: kidney; for AUC(0-inf) / AUC(0-t) / half-life / Kp: po; for Kp at 12 h / Kp: kidney/plasma; for Kp at 12 h: oral
Description: Female CD-1 mice (n = 5/sex/time point/group) weighing approximately 25 g were administered SCY-078 by oral gavage either once daily or as multiple twice-per-day (Q12h) treatments, with individual doses ranging between 3 and 100 mg/kg (6 to 150 mg/kg/day). Mice also received a single 1-mg/ml i.v. dose of SCY-078. Plasma specimens were collected prior to dosing and at 0.25, 0.5, 1, 2, 4, 6, 9, 12, 18, 24, 36, 48, and 60 h after the single i.v. dose and at the same time points from 1 h postdose onward following oral dose 13 on day 7 of treatment. On the first day of oral treatment, plasma specimens were collected immediately before each of the two doses and 1, 2, 4, 6, 9, and 12 h postdosing. […] Kidney tissues were collected at 2, 4, 12, 24, 36, 48, and 60 h after oral dose 13 on treatment day 7, blotted dry, and stored at approximately −80°C until analysis.
On the day of analysis, either treatment-naive (drug-free) kidney tissue or freshly thawed tissue samples from PK studies were weighed and homogenized in 3 volumes of phosphate-buffered saline. The density of kidney tissue used for the determination of volume was assumed to be 1.0 g/ml.
Whole-kidney tissue samples were homogenized in parallel by means of a Precellys 24 bead mill homogenizer (Bertin Technologies, Montigny le Bretonneux, France) using 2-ml Precellys tubes containing 1.4-mm-diameter ceramic beads (CK14) and a single 15-s cycle of 5,500 rpm. Parallel bead homogenization increased throughput and avoided potential cross-contamination of samples since each sample was wholly contained and homogenized within its own sealed vial with no direct contact between the homogenizing instrument or other samples.
Mouse plasma (50 μl) or kidney tissue homogenate (50 μl) was treated with 5 volumes of acetonitrile containing 50 ng of deuterium (d9)-labeled SCY-078 internal standard/ml to precipitate proteins. Treated samples were mixed on a 96-well plate shaker for ∼30 min and then centrifuged at approximately 4,000 × g and 15°C for 15 min. Supernatants were transferred to fresh 96-well plates for analysis by LC-MS/MS.

[5] = female (mouse), both (rat, dog), CD-1 (mouse), Wistar Han (rat), beagle (dog), dog, po

Work on `CC(C)[C@@H](C)[C@@]1(C)CC[C@]2(C)[C@H]3CC[C@@H]4[C@@]5(COC[C@@]4(C)[C@@H](OC[C@](C)(N)C(C)(C)C)[C@H](n4ncnc4-c4ccncc4)C5)C3=CC[C@@]2(C)[C@@H]1C(=O)O` [SCY-078, (1S,4aR,6aS,7R,8R,10aR,10bR,12aR,14R,15R)-15-[[(2R)-2-amino-2,3,3-trimethylbutyl]oxy]-8-[(1R)-1,2-dimethylpropyl]-14-[5-(4-pyridinyl)-1H-1,2,4-triazol-1-yl]-1,6,6a,7,8,9,10,10a,10b,11,12,12a-dodecahydro-1,6a,8,10a-tetramethyl-4H-1,4a-propano-2H-phenanthro[1,2-c]pyran-7-carboxylic acid] yielded a pKa (pKa values; carboxylic acid) of 5.5, a pKa (pKa values; primary amine) of 9 and a pKa (pKa values; pyridine) of 2.4. It also gave a fraction unbound at 24 h [1] of 0.002 to 0.005, a Papp at 2 h, 5 µM (in vitro) of ~8.9 ×10⁻⁶ cm/s and a Papp at 2 h, 5 μM (in vitro) of 8.9 ± 0.78 ×10⁻⁶ cm/s. The “Total drug AUC0–24 target” value [2] was ~18.8 µM·h, the logD (logD; at PI) was 4.9 and the logD (logD; pH 7.3) was ~6.4. It also gave a Cmax (in vivo [3]; CD-1 (mouse), Wistar Han (rat), beagle (dog), dog, po) of ~1000 ng/mL, a half-life (in vivo [3]; both sexes, CD-1, Wistar Han, mouse, rat, po) of 7.8 to 9.1 h and a half-life (in vivo [3]; female (mouse), both (rat), CD-1 (mouse), Wistar Han (rat), iv) of 5.5 to 8.7 h. The Vd (in vivo [3]; female (mouse), both (rat, dog), CD-1 (mouse), Wistar Han (rat), beagle (dog), dog, iv) was 4.7 to 5.3 L/kg, the “Dose normalized AUC0–12 across species” value (in vivo [3]; [5]) was 0.5-0.8 μg/ml·h/mg/kg dose and the Tmax (in vivo [3]; [5]) was 4 to 6 h. It also gave an AUC(0-inf) (in vivo [4]; 6.25 mg/kg) of 198 µg·h/mL, an AUC(0-t) (in vivo [4]; 6.25 mg/kg) of 118 µg·h/mL and a half-life (in vivo [4]; 6.25 mg/kg) of 9.2 h. It also gave an AUC(0-inf) (in vivo [4]; 12 mg/kg) of 700 µg·h/mL, an AUC(0-t) (in vivo [4]; 12 mg/kg) of 346 µg·h/mL and a half-life (in vivo [4]; 12 mg/kg) of 8.9 h. For the same molecule, the Kp at 12 h (in vivo [4]; 6.25 mg/kg) was 19, the Kp at 12 h (in vivo [4]; 12 mg/kg) was 25.7 and the Kp (in vivo [4]; 6.25 mg/kg) was 21.5. For the same molecule, the Kp (in vivo [4]; 12 mg/kg) was 23.1.
